According to patent US20260109674A1, “ALLOSTERIC MODULATION OF MUSCARINIC ACETYLCHOLINE RECEPTOR EFFICACY” (The University of Toledo, priority 2022, published 2026):
Read-outs that look alike come from different tables or passages of the source.

Legend:
[1] = system: wild-type zebrafish larvae; assay: Maximum tolerated concentration (MTC) determination in zebrafish larvae; type: in vivo, Danio rerio
Description: Determination of maximum tolerated concentration was completed by placing 5 days post fertilization (dpf) wild-type zebrafish larvae in a 24 well plate at 6 fish per well, and one compound concentration per well. […] Death was determined by the absence of heartbeat. Additional endpoints were used to assess toxicity at non-lethal concentrations such as startle capacity (poke stimulus), abnormalities in swimming behavior (loss of dorsoventral balance), and gross morphological deformities (bent body). […] The MTC determination was used to select three doses of each compound (low, medium, high dose) to be used in behavioral assays.

[2] = biological target: T1, M1 muscarinic receptors expressed in CHO cells (Homo sapiens, UniProt P11229); assay: [3H]-arachidonic acid release screen with and without ACh and modulator; type: cell-based; conditions: for Modulation of ACh activity (in words): [3H]AA release, modulator 10 μM
T1 construct: expressed in transfected cells; host or cells: CHO (CHO-hM1, stably transfected)
T1 sequence (P11229 1-460): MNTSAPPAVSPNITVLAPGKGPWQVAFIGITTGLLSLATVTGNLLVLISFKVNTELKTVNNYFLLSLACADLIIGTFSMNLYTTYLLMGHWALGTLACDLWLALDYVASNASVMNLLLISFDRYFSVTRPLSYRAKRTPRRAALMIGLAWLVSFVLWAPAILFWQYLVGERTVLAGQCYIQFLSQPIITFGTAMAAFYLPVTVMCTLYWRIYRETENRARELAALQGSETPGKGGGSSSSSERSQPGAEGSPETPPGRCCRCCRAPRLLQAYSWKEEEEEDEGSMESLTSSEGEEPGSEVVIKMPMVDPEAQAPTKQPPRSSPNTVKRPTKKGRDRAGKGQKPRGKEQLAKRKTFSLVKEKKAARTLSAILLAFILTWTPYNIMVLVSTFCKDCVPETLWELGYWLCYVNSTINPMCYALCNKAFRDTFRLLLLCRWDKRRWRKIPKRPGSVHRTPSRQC
Description: CHO cells expressing human M1 muscarinic receptors were cultured at 37° C. in a 5% CO2 atmosphere in F12 medium supplemented with 5% fetal bovine serum, 100 units/mL penicillin, and 100 μg/mL streptomycin.
Measurement of [^3H]AA release was performed. Stably transfected CHO-hM1 or CHO-hM3 cells were seeded on 24-well plates (Greiner Bio-One GmbH, Frickenhausen, Germany) at a density of 5.0×10^4 cells/well in 0.5 ml of F-12 medium. Cells were incubated until they attached (approximately 3 h), followed by the addition of [^3H]AA to a final concentration of 0.05 μCi of [^3H]AA per well. The cells were then grown for 16 to 20 h before the assay was performed. [^3H]AA release was measured in Eagle's basal medium with 20 mM HEPES and 2 mg/ml fatty acid-free bovine serum albumin (EM-BSA). Cells were rinsed twice with EM-BSA, followed by the addition of EM-BSA media containing experimental agents and incubated for 1 h at 37° C. The assay was terminated by aspiration of the media, and the amount of [^3H]AA released was determined by liquid scintillation counting (Beckman-Coulter LS6500).
For some assays, pretreatment with phenoxybenzamine (POB) was employed, as indicated, to reduce the number of available receptors per cell. Stock POB was made up at 10 mM in ethanol and stored at −20° C. Each well was pretreated with 0.5 ml of the appropriate concentration in PBS with 1 mM CaCl2 and 1 mM MgCl2 (PBS++) for 30 min at 37° C., followed by 5 washes with PBS++. After pretreatment, the normal protocol was followed as above.
Tabulated [^3H]AA release data are represented as a fraction of maximal release in the presence of 100 μM ACh or as the fraction of release elicited by the appropriate concentration of ACh alone, as indicated dose-response curves were normalized to the maximal response of ACh without allosteric ligand. Some response curves were analyzed using the empirical four-parameter equation: […]
Disintegration per minute (DPM) values for a single compound were obtained in triplicate, and each compound was evaluated on three separate 24-well plates. The mean values for each condition from each of the three 24-well plates were used for the statistical analysis. The baseline mean was subtracted from each value, then normalized to the mean response produced by 100 μM ACh (set at 1.0). Statistical analyses were completed on the normalized values via one-way repeated measures ANOVA with Tukey's post hoc test. Statistically significant differences are noted as follows: *, p<0.05; **, p<0.01; ***, p<0.001.

[3] = system: wild-type zebrafish larvae; assay: General locomotor assay in zebrafish larvae (locomotor activity, repetitive behaviors); type: in vivo, Danio rerio; conditions: for Angular Velocity / Total Distance Moved / Variance of Turn Angle: Table 3, tested at 1 μM due to toxicity at 10 μM (footnote a); for response vs control in vivo at 10 µM: Danio rerio, Table 5, 10 μM concentration, N = 12
Description: Five days post fertilization (dpf) zebrafish larvae were exposed to a range of nonlethal concentrations of the compounds in a 24-well plate with appropriate controls. The movement of each larval zebrafish was monitored with the Noldus behavior recording system (Noldus Information Technology, Leesburg VA) and quantified using EthoVision® XT 15 software (Noldus Information Technology, Leesburg VA). The plate was immediately placed in the incubator for a 30-minute exposure period. After 30 minutes, the plate was transferred to the Noldus system and swimming behavior was recorded in 100% light for 30 minutes to measure spontaneous swimming behavior. The light was switched off for 10 minutes (dark period) and then switched on for 10 minutes (light period), which was then repeated for two additional cycles. In total, the larvae were exposed to three cycles of alternating 10-minute dark and light periods (100% darkness-to-100% light). […]
All data for exposure and the behavioral end points were analyzed by one-way ANOVA (factor: drug conc) followed by a Dunnett's multiple comparisons test for post hoc significance between drug concentration and control group. Statistically significant differences are noted as follows: *, p<0.05; **, p<0.01; ***, p<0.001.

[4] = after 24-hour exposure, Table 3
[5] = 10 μM modulator, 0.1 μM ACh, Table 1
[6] = 10 μM modulator, 100 μM ACh, Table 1

| SMILES | Maximum Tolerated Concentration [1, 4] [µM] | Stimulation of [3H]AA release, No ACh (fraction of stimulation above the control) ([2]; 10 μM modulator, Table 1) | Ratio of response of ACh with modulator to response of ACh alone, 0.1 μM ACh [2, 5] | Ratio of response of ACh with modulator to response of ACh alone, 100 μM ACh [2, 6] | further results |
| --- | --- | --- | --- | --- | --- |
| CCCCc1oc2ccccc2c1C(=O)c1cc(I)c(OCC[N+](CC)(CC)CC)c(I)c1 [Compound 2, N-ethylamiodarone, reference compound] | 1 | 0.04 ± 0.02 |  |  | Ratio of response of ACh with modulator to response of ACh alone, 0.1 μM ACh [2]: 0.17 ± 0.04; Ratio of response of ACh with modulator to response of ACh alone, 100 μM ACh [2]: 0.50 ± 0.03; Modulation of ACh activity (in words) [2]: NAM of mAChR efficacy; Angular Velocity [3]: 128.9 ± 18.5 % of control; Total Distance Moved [3]: 95.8 ± 11.0 % of control; Variance of Turn Angle [3]: 97.6 ± 10.3 % of control |
| CCCCc1oc2ccccc2c1C(=O)c1cc(I)c(O)c(I)c1 [Compound 3, reference compound] | 3 | 0.02 ± 0.00 | 0.42 ± 0.00 | 0.81 ± 0.07 | Modulation of ACh activity (in words) [2]: completely inactive; Angular Velocity [3]: 101.8 ± 19.2 % of control; Total Distance Moved [3]: 145.4 ± 21.7 % of control; Variance of Turn Angle [3]: 93.4 ± 9.4 % of control |
| CCCCc1oc2ccccc2c1C(=O)c1ccc(O)cc1 [Compound 4, reference compound] | 0.3 | 0.03 ± 0.02 |  |  | Ratio of response of ACh with modulator to response of ACh alone, 0.1 μM ACh [2]: 0.49 ± 0.09; Ratio of response of ACh with modulator to response of ACh alone, 100 μM ACh [2]: 0.72 ± 0.04; Modulation of ACh activity (in words) [2]: completely inactive; Angular Velocity [3]: 105.7 ± 14.8 % of control; Total Distance Moved [3]: 56.7 ± 9.3 % of control; Variance of Turn Angle [3]: 115.8 ± 12.4 % of control |
| COc1c(Cl)cc(CN2C(=O)C(=O)c3ccccc32)cc1Cl [Compound 8e, 1-(3,5-dichloro-4-methoxybenzyl)indoline-2,3-dione] | 100 | 0.08 ± 0.01 | 2.13 ± 0.11 | 1.28 ± 0.07 |  |
| COc1ccc(CN2C(=O)C(=O)c3ccccc32)cc1Cl [Compound 8f, 1-(3-chloro-4-methoxybenzyl)indoline-2,3-dione] | 10 | 0.08 ± 0.02 | 1.49 ± 0.03 | 1.13 ± 0.04 |  |
| COc1c(F)cc(CN2C(=O)C(=O)c3ccccc32)cc1F [Compound 8g, 1-(3,5-difluoro-4-methoxybenzyl)indoline-2,3-dione] | 30 | 0.03 ± 0.01 | 1.33 ± 0.03 | 0.94 ± 0.02 |  |
| COc1ccc(CN2C(=O)C(=O)c3ccccc32)cc1F [Compound 8h, 1-(3-fluoro-4-methoxybenzyl)indoline-2,3-dione] | 30 | 0.04 ± 0.01 | 1.17 ± 0.02 | 1.03 ± 0.01 |  |
| O=C1C(=O)N(Cc2cc(F)c(F)c(F)c2)c2ccccc21 [Compound 8i, 1-(3,4,5-trifluorobenzyl)indoline-2,3-dione] | 10 | 0.07 ± 0.01 | 1.39 ± 0.06 | 1.05 ± 0.02 |  |
| COc1cc(CN2C(=O)C(=O)c3ccccc32)cc(OC)c1OC [Compound 8k, 1-(3,4,5-trimethoxybenzyl)indoline-2,3-dione] | 30 | 0.03 ± 0.00 | 1.37 ± 0.08 | 0.83 ± 0.01 |  |
| O=C1C(=O)N(Cc2ccc(O)cc2)c2ccccc21 [Compound 10, 1-(4-hydroxybenzyl)indoline-2,3-dione] | 10 | 0.01 ± 0.01 | 1.60 ± 0.10 | 0.92 ± 0.06 |  |
| CCCCc1oc2ccc(NS(C)(=O)=O)cc2c1C(=O)c1ccc(OCCCN(CCCC)CCCC)cc1 [Dronedarone, reference compound] | 10 | 0.08 ± 0.01 | 0.25 ± 0.05 | 0.75 ± 0.07 |  |
| COc1c(I)cc(CN2C(=O)C(=O)c3cc(OC(F)(F)F)ccc32)cc1I [GK-1-44] |  |  |  |  | Maximum Tolerated Concentration ([1]; after 24-hour exposure in separate experiments, Table 5): 10 µM; Ratio of response of ACh with modulator to response of ACh alone, 0.1 μM ACh ([2]; 10 μM modulator, 0.1 μM ACh, Table 4, N = 4-5): 2.47 ± 0.22; Ratio of response of ACh with modulator to response of ACh alone, 100 μM ACh ([2]; 10 μM modulator, 100 μM ACh, Table 4, N = 4-5): 1.67 ± 0.11; Stimulation of [3H]AA release, No ACh (fraction of stimulation above the control) ([2]; 10 μM modulator, Table 4, N = 4-5): 0.37 ± 0.04; response vs control in vivo at 10 µM ([3]; read-out: Angular Velocity): 114 ± 19.2%; response vs control in vivo at 10 µM ([3]; read-out: Total Distance Moved): 78.5 ± 11.1%; response vs control in vivo at 10 µM ([3]; read-out: Variance of Turn Angle): 105 ± 10.6% |
